Data from patent US20260327204A1, “DEGRADERS OF CYCLIN-DEPENDENT KINASE 12/13, COMPOSITIONS, AND USES THEREOF” (ZHEJIANG UNIVERSITY, priority 2023, published 2026).

What was measured:
[1] = Liver microsome stability, monkey; assay type: in vitro ADME; details: liver microsomes
Method: (§1) • Compounds: Ketanserin, Formula 18, Formula 45 • Liver microsomes: Human liver microsomes (purchased from BioreclamationIVT); Dog, mouse, rat, and monkey liver microsomes (purchased from Xenotech)
(§2) Preparation of 500 μM compound solution: Add 5 μL of 10 mM compound solution and 95 μL of DMSO to an EP tube.
(§3) Preparation of solution containing 0.75 mg/mL liver microsomes and 1.5 μM compound: Add 1.5 μL of the 500 μM compound solution, 18.75 μL of the 20 mg/mL liver microsome solution, and 479.75 μL of PBS to an EP tube.
(§4) Preparation of 6 mM NADPH solution: Dissolve 5 mg of NADPH in 1 mL of PBS solution.
(§5) Add 30 μL of the solution containing 0.75 mg/mL liver microsomes and a concentration gradient of the compound to a 96-well plate. Add 15 μL of the 6 mM NADPH solution and 150 μL of a 1:1 acetonitrile:methanol solution containing an internal standard (IS). Vortex and centrifuge at 6,000 rpm for 10 min. 80 μL of the supernatant from each concentration sample is transferred to a 96-well plate containing 140 μL of pure water for LC/MS detection (injection volume of […]). […]
(§6) 80 μL of the supernatant from each well is transferred to a 96-well plate containing 140 μL of pure water for LC/MS detection (injection volume of […]). The compound concentration value is determined by comparing the corresponding mass spectrometry peak area with the standard curve. […]

[2] = Liver microsome stability, rat; assay type: in vitro ADME; details: liver microsomes
Method: as §1, §2, §3, §4, §5, §6

[3] = Liver microsome stability, human; assay type: in vitro ADME; details: liver microsomes
Method: as §1, §2, §3, §4, §5, §6

[4] = Liver microsome stability, dog; assay type: in vitro ADME; details: liver microsomes
Method: as §1, §2, §3, §4, §5, §6

[5] = biological target: T1, CDK13 (Homo sapiens, UniProt Q14004); experiment: Western blot degradation of CDK13 (Example 2); assay type: cell-based; design: degradation of CDK12/13 protein in leukemia cells KASUMI-1, MV4-11, and Jurkat; endogenous in cells; details: DC50 classes; cell line not given; read-out: CDK13 degradation Activity
T1 sequence (Q14004 whole entry): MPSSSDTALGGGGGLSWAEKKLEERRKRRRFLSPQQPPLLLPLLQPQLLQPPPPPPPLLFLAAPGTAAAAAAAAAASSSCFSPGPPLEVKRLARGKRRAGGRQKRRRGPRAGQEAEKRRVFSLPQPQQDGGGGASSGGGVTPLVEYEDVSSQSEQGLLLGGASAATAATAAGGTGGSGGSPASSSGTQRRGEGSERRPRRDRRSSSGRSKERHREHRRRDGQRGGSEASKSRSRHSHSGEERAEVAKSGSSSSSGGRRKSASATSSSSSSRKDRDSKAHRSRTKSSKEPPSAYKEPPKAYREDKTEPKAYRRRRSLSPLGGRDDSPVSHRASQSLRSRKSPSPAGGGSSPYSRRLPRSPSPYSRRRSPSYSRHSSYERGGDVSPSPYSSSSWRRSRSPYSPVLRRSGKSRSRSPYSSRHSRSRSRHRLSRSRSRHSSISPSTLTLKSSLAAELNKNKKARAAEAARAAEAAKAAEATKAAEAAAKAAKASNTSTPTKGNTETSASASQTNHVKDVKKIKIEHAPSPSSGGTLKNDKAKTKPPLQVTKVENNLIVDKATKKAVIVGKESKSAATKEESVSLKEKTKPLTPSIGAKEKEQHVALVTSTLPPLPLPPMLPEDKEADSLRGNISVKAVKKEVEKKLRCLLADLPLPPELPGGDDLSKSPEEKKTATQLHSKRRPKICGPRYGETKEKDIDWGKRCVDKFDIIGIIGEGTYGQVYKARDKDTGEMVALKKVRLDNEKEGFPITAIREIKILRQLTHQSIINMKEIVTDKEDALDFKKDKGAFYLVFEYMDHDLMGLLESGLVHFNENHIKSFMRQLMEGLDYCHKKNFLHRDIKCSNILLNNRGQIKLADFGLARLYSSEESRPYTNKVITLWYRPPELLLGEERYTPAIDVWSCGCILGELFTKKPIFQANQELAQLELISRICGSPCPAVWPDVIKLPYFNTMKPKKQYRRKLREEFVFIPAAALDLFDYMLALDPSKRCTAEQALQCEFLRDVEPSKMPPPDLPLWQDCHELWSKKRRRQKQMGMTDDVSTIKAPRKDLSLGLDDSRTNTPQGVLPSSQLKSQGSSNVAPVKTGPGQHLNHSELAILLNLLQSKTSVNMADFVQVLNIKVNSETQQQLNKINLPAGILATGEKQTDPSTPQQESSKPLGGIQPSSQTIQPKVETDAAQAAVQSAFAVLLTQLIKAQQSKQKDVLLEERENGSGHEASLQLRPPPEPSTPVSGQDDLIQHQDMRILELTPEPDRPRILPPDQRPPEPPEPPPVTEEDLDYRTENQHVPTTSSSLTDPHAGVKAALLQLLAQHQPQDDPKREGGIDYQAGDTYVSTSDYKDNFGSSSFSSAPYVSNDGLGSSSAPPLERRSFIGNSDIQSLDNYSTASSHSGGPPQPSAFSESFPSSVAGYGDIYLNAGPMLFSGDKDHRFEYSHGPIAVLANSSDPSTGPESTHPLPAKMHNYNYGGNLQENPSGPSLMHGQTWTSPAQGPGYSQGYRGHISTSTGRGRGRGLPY
T1 sequence (O75909 whole entry partner): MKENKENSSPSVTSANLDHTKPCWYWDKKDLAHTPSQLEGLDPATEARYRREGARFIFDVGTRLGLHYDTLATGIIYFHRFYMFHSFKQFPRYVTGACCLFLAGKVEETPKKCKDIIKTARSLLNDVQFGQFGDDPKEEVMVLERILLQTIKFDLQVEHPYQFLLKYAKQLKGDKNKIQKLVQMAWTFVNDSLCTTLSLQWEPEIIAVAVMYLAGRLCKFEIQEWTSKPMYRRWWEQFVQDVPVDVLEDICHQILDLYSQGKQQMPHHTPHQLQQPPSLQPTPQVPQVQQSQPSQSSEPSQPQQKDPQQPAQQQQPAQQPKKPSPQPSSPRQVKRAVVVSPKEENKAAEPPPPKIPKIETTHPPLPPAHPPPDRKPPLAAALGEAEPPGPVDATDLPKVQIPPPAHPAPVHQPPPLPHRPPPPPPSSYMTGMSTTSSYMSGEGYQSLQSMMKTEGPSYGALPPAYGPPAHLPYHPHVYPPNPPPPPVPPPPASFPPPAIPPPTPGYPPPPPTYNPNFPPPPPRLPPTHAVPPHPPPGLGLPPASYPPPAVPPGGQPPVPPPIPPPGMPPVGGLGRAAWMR

[6] = biological target: T2, CDK12 (Homo sapiens, UniProt Q9NYV4); experiment: Western blot degradation of CDK12 (Example 2); assay type: cell-based; design: degradation of CDK12/13 protein in leukemia cells KASUMI-1, MV4-11, and Jurkat; endogenous in cells; details: DC50 classes; cell line not given; read-out: CDK12 degradation Activity
T2 sequence (Q9NYV4 whole entry): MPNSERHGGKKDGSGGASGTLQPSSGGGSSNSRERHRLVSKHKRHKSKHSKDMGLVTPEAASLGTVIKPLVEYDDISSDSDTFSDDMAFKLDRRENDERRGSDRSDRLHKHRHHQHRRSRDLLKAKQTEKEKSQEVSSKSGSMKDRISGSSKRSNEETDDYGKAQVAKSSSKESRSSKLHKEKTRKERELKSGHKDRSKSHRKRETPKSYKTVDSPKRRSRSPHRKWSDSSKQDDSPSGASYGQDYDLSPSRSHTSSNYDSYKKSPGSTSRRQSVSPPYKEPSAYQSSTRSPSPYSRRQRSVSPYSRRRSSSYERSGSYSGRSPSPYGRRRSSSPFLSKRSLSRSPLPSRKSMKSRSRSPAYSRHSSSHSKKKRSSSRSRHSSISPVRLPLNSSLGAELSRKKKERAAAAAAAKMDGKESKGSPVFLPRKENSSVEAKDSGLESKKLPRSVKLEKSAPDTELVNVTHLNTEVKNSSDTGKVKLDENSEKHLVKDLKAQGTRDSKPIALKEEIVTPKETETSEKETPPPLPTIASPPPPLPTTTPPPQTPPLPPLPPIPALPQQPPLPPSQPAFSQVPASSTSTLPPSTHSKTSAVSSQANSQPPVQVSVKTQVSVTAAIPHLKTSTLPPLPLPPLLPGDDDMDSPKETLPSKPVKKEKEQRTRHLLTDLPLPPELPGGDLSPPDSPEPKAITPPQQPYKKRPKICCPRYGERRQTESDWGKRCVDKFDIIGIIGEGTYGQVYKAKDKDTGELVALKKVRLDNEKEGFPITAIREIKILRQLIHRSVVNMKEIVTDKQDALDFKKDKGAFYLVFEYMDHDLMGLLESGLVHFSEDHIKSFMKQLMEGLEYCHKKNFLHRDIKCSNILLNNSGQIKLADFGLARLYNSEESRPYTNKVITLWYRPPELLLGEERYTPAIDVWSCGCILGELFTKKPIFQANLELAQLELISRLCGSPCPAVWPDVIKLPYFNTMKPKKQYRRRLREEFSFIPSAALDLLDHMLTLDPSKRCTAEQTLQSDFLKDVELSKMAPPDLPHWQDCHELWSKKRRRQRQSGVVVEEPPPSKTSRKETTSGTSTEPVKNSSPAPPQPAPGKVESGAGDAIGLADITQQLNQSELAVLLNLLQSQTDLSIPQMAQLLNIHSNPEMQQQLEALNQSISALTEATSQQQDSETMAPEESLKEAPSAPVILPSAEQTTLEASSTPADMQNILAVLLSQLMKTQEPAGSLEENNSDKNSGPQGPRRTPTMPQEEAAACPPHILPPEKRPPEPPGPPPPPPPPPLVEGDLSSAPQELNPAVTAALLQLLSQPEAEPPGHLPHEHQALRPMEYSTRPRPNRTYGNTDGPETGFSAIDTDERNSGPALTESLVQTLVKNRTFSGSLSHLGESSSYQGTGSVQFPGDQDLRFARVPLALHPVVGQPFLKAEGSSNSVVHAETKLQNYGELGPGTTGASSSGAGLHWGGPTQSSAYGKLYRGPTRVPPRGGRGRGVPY
T2 sequence (O75909 whole entry partner): as the sequence (O75909 whole entry partner) above
Outline: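 Leukemia lines KASUMI-1, MV4-11, Jurkat, plus MDA-MB-231 for a concentration series, treated at 0.01–3 μM for 3–48 h at 37 °C against DMSO control. Lysates in 4% SDS; CDK12/13 band intensity normalized to β-Actin or GAPDH to give degradation rate.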

[7] = system: serine 2 in the C-terminal domain of RNA polymerase II (CTD-pSer2); experiment: Phosphorylation of serine 2 in the C-terminal domain of RNA polymerase II, Western blot; assay type: cell-based; details: MDA-MB-231, 24 h, concentration gradient
Method: Protein Western blot was used to determine the degradation of CDK12/13 protein in colorectal cancer cells HCT-116, breast cancer cells MDA-MB-231, and leukemia cells Jurkat. The two compounds with the best degradation effects were further validated for their ability to degrade CDK12/13 protein in MDA-MB-231 cells using a concentration gradient. The effect of the compounds on the phosphorylation of serine 2 in the C-terminal domain of RNA polymerase II (CTD-pSer2) was also measured.
(§7) (3) Compound treatment: The 50 mM compound stock solution was diluted with cell culture medium to a final concentration of 0.01 μM-3 μM. Cells were incubated in a 37 °C incubator with 5% CO2 for 3 h-48 h. The DMSO group served as the negative control.

[8] = biological target: T1, CDK13; experiment: Western blot degradation of CDK13 (Example 3); assay type: cell-based; design: degradation of CDK12/13 protein in leukemia cells KASUMI-1, MV4-11, and Jurkat; endogenous in cells
[9] = system: CCNK; experiment: Reversal of CCNK degradation by proteasome inhibitor MG132, Western blot; assay type: cell-based; details: MDA-MB-231, 24 h treatment, MG132 added 12 h before sample collection
Method: (§8) • Cell lines: HCT-116, Jurkat, or MDA-MB-231 • Culture medium: DMEM/RIPM-1640+10% Hyclone serum • Compound dissolution method: The compounds (small molecule conjugates as shown in Formulae 101-147, MG132) were dissolved in DMSO to prepare a 50 mM stock solution and then diluted to the corresponding concentrations.
as §7
In the figures, CDK12, CDK13, and CCNK are the target proteins under study, and β-Actin and GAPDH are the internal reference proteins. Internal reference proteins are used to indicate the total protein amount in each experimental group for quantitative analysis.

[10] = biological target: T2, CDK12; experiment: Reversal of CDK12 degradation by proteasome inhibitor MG132, Western blot; assay type: cell-based; design: endogenous in cells; details: MDA-MB-231, 24 h treatment, MG132 added 12 h before sample collection
Method: as §8, §7

[11] = biological target: T1, CDK13; experiment: Reversal of CDK13 degradation by proteasome inhibitor MG132, Western blot; assay type: cell-based; design: endogenous in cells; details: MDA-MB-231, 24 h treatment, MG132 added 12 h before sample collection
Method: as §8, §7

[12] = biological target: T2, CDK12; experiment: Western blot degradation of CDK12 (Example 3); assay type: cell-based; design: degradation of CDK12/13 protein in leukemia cells KASUMI-1, MV4-11, and Jurkat; endogenous in cells

DC50 ([8]; DC50 classes, cell line not given, read-out: CDK13 degradation Activity) [nM] | DC50 ([8]; HCT116, colorectal cancer cells, read-out: CDK13 DC50) [nM] | DC50 ([8]; KASUMI-1, leukemia cells, read-out: CDK13 DC50) [nM] | DC50 ([8]; MDA-MB-231, breast cancer cells, read-out: CDK13 DC50) [nM] | DC50 ([12]; DC50 classes, cell line not given, read-out: CDK12 degradation Activity) [nM] | DC50 ([12]; HCT116, colorectal cancer cells, read-out: CDK12 DC50) [nM] | DC50 ([12]; KASUMI-1, leukemia cells, read-out: CDK12 DC50) [nM] | DC50 ([12]; MDA-MB-231, breast cancer cells, read-out: CDK12 DC50) [nM] | SMILES | half-life [1] [min] | half-life [2] [min] | half-life [3] [min] | half-life [4] [min] | DC50 [5] [nM] | DC50 [6] [nM] | phosphorylation of serine 2 in the C-terminal domain of RNA polymerase II (CTD-pSer2) [7] | reversal of CCNK degradation by MG132 [9] | reversal of CDK12 degradation by MG132 [10] | reversal of CDK13 degradation by MG132 [11]
– | – | – | – | – | – | – | – | Cc1ncsc1-c1ccc([C@H](C)NC(=O)[C@@H]2C[C@@H](O)CN2C(=O)[C@@H](NC(=O)CN2CCN(c3ccc(-c4ccc(N(C(=O)NCc5ccccc5)[C@H]5CC[C@H](Nc6ccc(C#N)cn6)CC5)cc4)cn3)CC2)C(C)(C)C)cc1 [Formula 18] | > 45 | > 45 | > 45 | > 45 | < 100 | < 100 | – | – | – | –
– | – | – | – | – | – | – | – | N#Cc1ccc(NC2CCC(N(C(=O)NCc3ccccc3)c3ccc(-c4ccc(=O)n(CCOCCOCCNc5cccc6c5C(=O)N(C5CCC(=O)NC5=O)C6=O)c4)cc3)CC2)nc1 (centres unmarked) [Formula 47] | – | – | – | – | 1000 to 3000 | 500 to 1000 | can dose-dependently downregulate the phosphorylation of serine 2 | – | – | –
< 100 | 19 | 18 | 30 | < 100 | 22 | 15 | 16 | CC(=O)N(c1ccc(-c2ccc(N3CCN(c4ccc5c(c4)C(=O)N(C4CCC(=O)NC4=O)C5=O)CC3)nc2)cc1)[C@H]1CC[C@H](Nc2ncc3ccccc3n2)CC1 (stereo partly drawn) [Formula 103, N-(4-(6-(4-(2-(2,6-dioxopiperidin-3-yl)-1,3-dioxoisoindolin-5-yl)piperazin-1-yl)pyridin-3-yl)phenyl)-N-((1R,4R)-4-(quinazolin-2-ylamino)cyclohexyl)acetamide] | – | – | – | – | – | – | – | can reverse the degradation of CDK12/13 and CCNK | can reverse the degradation of CDK12/13 and CCNK | can reverse the degradation of CDK12/13 and CCNK
